Measurements: article PMC7582705, “Structure-Based Discovery of Novel Chemical Classes of Autotaxin Inhibitors” (International Journal of Molecular Sciences, 2020)
Read-outs that look alike come from different tables or passages of the source.

Experiments:
Solubility (Table S1) = settings: YES/NO
ATX [1] = target: T1, ATX (Homo sapiens, UniProt Q13822); assay: Amplex Red Lyso-phospholipase D assay, human ATX; type: biochemical; set-up: purchased Sino Biological; settings: for inhibition at 30 µM: read-out: %inhibition at 30uM
Description: (§1) All compounds proposed were assessed for their ATX inhibitory activity in vitro using the Amplex Red assay. The Amplex Red Lyso-phospholipase D assay is a fluorometry-based assay providing a sensitive method for measuring Lyso-phospholipase D (ATX) activity in vitro. In this enzyme-coupled assay, ATX activity is monitored indirectly using 10-acetyl-3,7-dihydrophenoxazine (Amplex Red reagent), a sensitive fluorogenic probe for H2O2. ATX initially cleaves the Lysophosphatidylcholine (LPC) substrate to yield choline and Lysophosphatidic acid (LPA), while choline gets subsequently oxidized by choline oxidase to betaine and H2O2. Lastly, H2O2, in the presence of horseradish peroxidase (HRP), reacts with Amplex Red reagent in a 1:1 stoichiometry to generate the highly fluorescent product resorufin.
The inhibition assay was performed as previously described with some modifications in order to accommodate the newly-discovered lag phase in ATX kinetics. To this end, and in order to provide adequate time to the hydrolysis of LPC by ATX, we added a 30min incubation period between ATX, inhibitors and LPC. Briefly, 2 μL of different concentrations of inhibitors diluted in DMSO (Sigma-Aldrich, St. Louis, MO, USA) were incubated with 50 µL of ATX 8 nM (human or mouse ATX from Sino Biological), and 48 µL reaction buffer (50 mM Tris-Cl pH 8.0 from Thermo Fisher Scientific, Waltham, MA, USA and 5 mM CaCl2 from Honeywell-Fluka, Charlotte, NC, USA) in a black 96-well microplate for 15 min at 37 °C. Thence, another 50 µL of reaction buffer with 200 μM LPC substrate 16:0 (Avanti Polar Lipids Inc, Alabaster, AL, USA) ([…]) was added to the reaction mixture and incubated for 30 min at 37 °C in order for ATX to convert LPC to LPA and choline. Finally, 50 µL of working solution containing 200 μM Amplex Red (Invitrogen, Carlsbad, CA, USA), 4 U/mL HRP (Sigma-Aldrich, St. Louis, MO, USA), 0.4 U/mL choline oxidase (Sigma-Aldrich, St. Louis, MO, USA) in 50 mM Tris-HCl pH 8.0 and 5 mM CaCl2 was added to measure the produced choline. The reaction was monitored at 37 °C in a fluorescence plate reader using excitation at 530 nm and reading at 590 nm, every 5 min for 30 min. The velocity of the reaction and the remaining activity of ATX were calculated at the linear phase of the reaction and dose-response inhibition graphs were plotted with GraphPad Software (GraphPad Software, San Diego, CA, USA). […] In order to evaluate a possible effect of the compounds on the second (choline oxidase) and third (HRP) enzymes of the Amplex Red assay, we also performed the assay in the absence of ATX but in the presence of the compounds. Instead of ATX, we added choline chloride at a final concentration of 2 µM so as the second and third steps of the assay could proceed normally.

mouse ATX [2] = target: T2, mouse ATX (Mus musculus, UniProt Q9R1E6); assay: Amplex Red Lyso-phospholipase D assay, mouse ATX; type: biochemical
T2 construct: purchased Sino Biological
Description: as §1
The inhibition assay was performed as previously described with some modifications in order to accommodate the newly-discovered lag phase in ATX kinetics. To this end, and in order to provide adequate time to the hydrolysis of LPC by ATX, we added a 30min incubation period between ATX, inhibitors and LPC. Briefly, 2 μL of different concentrations of inhibitors diluted in DMSO (Sigma-Aldrich, St. Louis, MO, USA) were incubated with 50 µL of ATX 8 nM (human or mouse ATX from Sino Biological), and 48 µL reaction buffer (50 mM Tris-Cl pH 8.0 from Thermo Fisher Scientific, Waltham, MA, USA and 5 mM CaCl2 from Honeywell-Fluka, Charlotte, NC, USA) in a black 96-well microplate for 15 min at 37 °C. Thence, another 50 µL of reaction buffer with 200 μM LPC substrate 16:0 (Avanti Polar Lipids Inc, Alabaster, AL, USA) (final concentrations of LPC and ATX are 50 µM and 2 nM, respectively) was added to the reaction mixture and incubated for 30 min at 37 °C in order for ATX to convert LPC to LPA and choline. Finally, 50 µL of working solution containing 200 μM Amplex Red (Invitrogen, Carlsbad, CA, USA), 4 U/mL HRP (Sigma-Aldrich, St. Louis, MO, USA), 0.4 U/mL choline oxidase (Sigma-Aldrich, St. Louis, MO, USA) in 50 mM Tris-HCl pH 8.0 and 5 mM CaCl2 was added to measure the produced choline. The reaction was monitored at 37 °C in a fluorescence plate reader using excitation at 530 nm and reading at 590 nm, every 5 min for 30 min. The velocity of the reaction and the remaining activity of ATX were calculated at the linear phase of the reaction and dose-response inhibition graphs were plotted with GraphPad Software (GraphPad Software, San Diego, CA, USA). […] In order to evaluate a possible effect of the compounds on the second (choline oxidase) and third (HRP) enzymes of the Amplex Red assay, we also performed the assay in the absence of ATX but in the presence of the compounds. Instead of ATX, we added choline chloride at a final concentration of 2 µM so as the second and third steps of the assay could proceed normally.

mouse ATX [3] = target: T2, mouse ATX; assay: Mode of inhibition, modified Amplex assay, Lineweaver-Burk plots; type: biochemical; settings: various LPC and inhibitor concentrations
Description: Lastly, to get insight into the mode of inhibition of the new ATX inhibitors developed in the present study, the Lineweaver–Burk plots were performed.
To determine the mode of inhibition of ATX by each inhibitor, a modified Amplex assay was employed. […] Mouse ATX from Sino Biological was used in all mode of inhibition assays. Thereafter, the velocity (V) of the reaction was calculated and the reciprocal of velocity (1/V) was plotted against the reciprocal of substrate concentration (1/S) in Lineweaver–Burk graphs using GraphPad Software (GraphPad Software, San Diego, CA, USA).

ATX [4] = target: T1, ATX; assay: IC50 Eleanna (Table S2, method not described); type: biochemical
phosphodiesterase (PDE) = assay: Phosphodiesterase (PDE) colorimetric assay, 3',5'-cAMP and 3',5'-cGMP as substrates; type: biochemical; settings: for activity against PDE: in words
Excerpt: This colorimetric assay kit uses 3′,5′-cAMP and 3′,5′-cGMP as substrates, and it is useful for the screening of inhibitors of nucleotide phosphodiesterase activity.

[5] = recombinant human ATX 2 nM, LPC 16:0 substrate, Amplex Red, read-out: IC50 hATX
[6] = in vitro IC50 (mATX 2nM), Table S2, mATX 2nM
[7] = in vitro IC50 (hATX 1nM), Table S2, hATX 1nM
[8] = recombinant mouse ATX 2 nM, LPC 16:0 substrate, Amplex Red, read-out: IC50 mATX
[9] = Table S2, read-out: IC50 Eleanna
[10] = in vitro IC50 (Sino hATX 2nM), Table S2, Sino hATX 2nM
[11] = IC50 hATX, recombinant human ATX 2 nM, LPC 16:0 substrate, Amplex Red

In the case of `Cc1ccc(C2=CC(c3cn(-c4ccccc4)nc3-c3ccccc3)N3C(=O)CSC3=N2)cc1` (stereo not shown) [HTS09893, 5-(1,3-diphenylpyrazol-4-yl)-7-(4-methylphenyl)-5H-[1,3]thiazolo[3,2-a]pyrimidin-3-one], the Solubility (Solubility (Table S1)) is reported as “YES” and the IC50 (ATX [1]; [5]) is reported as over 100 µM.
For `O=C(CN1CCN(C2c3ccccc3-c3ccccc32)CC1)c1ccc2c(c1)OCO2` [HTS10658, 1-(1,3-benzodioxol-5-yl)-2-[4-(9H-fluoren-9-yl)piperazin-1-yl]ethanone], the Solubility (Solubility (Table S1)) was “YES” and the IC50 (ATX [1]; [5]) was over 100 µM.
For `Nc1ncnc2c1ncn2CCc1ccccc1` [HTS11215, 9-phenethyl-9H-purin-6-amine], the Solubility (Solubility (Table S1)) was “YES” and the IC50 (ATX [1]; [5]) was over 100 µM.
For `NC(=NOC(=O)c1cncc(C#Cc2ccccc2)c1)c1cccc(C(F)(F)F)c1` [KM08386, O1-{[5-(2-phenyleth-1-ynyl)-3-pyridyl]carbonyl}-3-(trifluoromethyl)benzene-1-carbohydroximamide], the Solubility (Solubility (Table S1)) was “YES” and the IC50 (ATX [1]; [5]) was over 100 µM.
With `CCOC(=O)c1c(CN2CCCC2)n(-c2ccccc2)c2cc(Br)c(OC)cc12` [KM-3, ethyl 6-bromo-5-methoxy-1-phenyl-2-(pyrrolidin-1-ylmethyl)indole-3-carboxylate] the IC50 (mouse ATX [2]; [6]) was 57 µM, the inhibition at 30 µM (ATX [1]; Table S2, at 30uM) was 17% and the IC50 (ATX [1]; [7]) was 54 µM.
In the case of `CCOC(=O)c1c(CN2CCCCC2)n(Cc2ccccc2)c2cc(Br)c(O)cc12` [KM-14, ethyl 1-benzyl-6-bromo-5-hydroxy-2-(piperidin-1-ylmethyl)-1H-indole-3-carboxylate], the IC50 (mouse ATX [2]) is reported as 5.9 µM, the “Mode of Inhibition” value (mouse ATX [3]) is reported as “mixed” and the IC50 (ATX [4]) is reported as 0.8 µM. The IC50 (ATX [1]) was 13.8 µM and the inhibition at 30 µM (ATX [1]) was 69%.
With `Cc1cccc(C)c1NC(=O)CSc1nc2ccccc2c(=O)n1CCc1cccs1` [KM-28, N-(2,6-dimethylphenyl)-2-[4-oxo-3-(2-thiophen-2-ylethyl)quinazolin-2-yl]sulfanylacetamide] the IC50 (mouse ATX [2]; [8]) was 3 µM, the IC50 (phosphodiesterase (PDE)) was 0.9 µM and the “activity against PDE” value (phosphodiesterase (PDE)) was “outstanding activity”. The IC50 (ATX [4]; [9]) was 2 µM, the inhibition at 30 µM (ATX [1]; Table S2, at 30uM) was 84.2% and the IC50 (ATX [1]; [10]) was 1.85 µM. It also gave an IC50 (ATX [1]; [5]) of 1.8 µM.
`COc1ccccc1NC(=S)N1CCn2cccc2C1c1ccc(OC)c(OC)c1` (stereo not shown) [KM-41, 1-(3,4-dimethoxyphenyl)-N-(2-methoxyphenyl)-3,4-dihydro-1H-pyrrolo[1,2-a]pyrazine-2-carbothioamide] showed an IC50 (mouse ATX [2]; [6]) of 60 µM, an IC50 (ATX [4]; [9]) of 0.3 µM and an inhibition at 30 µM (ATX [1]; Table S2, at 30uM) of 33.5%. For the same molecule, the IC50 (ATX [1]; [7]) was 38 µM.
With `O=C(NC(=O)c1ccc(-c2ccc(Cl)cc2)s1)Nc1cc(C(F)(F)F)cc(C(F)(F)F)c1` [MBE00201, N-[[3,5-bis(trifluoromethyl)phenyl]carbamoyl]-5-(4-chlorophenyl)thiophene-2-carboxamide] the Solubility (Solubility (Table S1)) was “YES” and the IC50 (ATX [1]; [5]) was over 100 µM.
In the case of `O=C(C(=Cc1ccccc1)n1ccnc1)c1ccccc1OCc1ccccc1` [NRB02626, 1-[2-(benzyloxy)phenyl]-2-(1H-imidazol-1-yl)-3-phenylprop-2-en-1-0ne], the Solubility (Solubility (Table S1)) is reported as “YES” and the IC50 (ATX [1]; [5]) is reported as over 100 µM.
For `O=C1C2=C([CH]C=C[CH]2)C(=O)N1CN(Cc1csc2ccccc12)CN1C(=O)c2ccccc2C1=O` [PD00399], the Solubility (Solubility (Table S1)) was “YES” and the IC50 (ATX [1]; [11]) was over 100 µM.
For `COc1ccc(C2C(C(=O)O)c3ccccc3C(=O)N2Cc2ccc(F)cc2)cc1` (stereo not shown) [PD00668, 2-(4-fluorobenzyl)-3-(4-methoxyphenyl)-1-oxo-1,2,3,4-tetrahydroisoquinoline-4-carboxylic acid], the Solubility (Solubility (Table S1)) was “YES” and the IC50 (ATX [1]; [5]) was over 100 µM.
With `FC(F)(F)c1ccc2c(c1)nc(SCc1ccccc1)n2CCc1ccccc1` [RDR02791, 2-benzylsulfanyl-1-(2-phenylethyl)-5-(trifluoromethyl)benzimidazole] the Solubility (Solubility (Table S1)) was “YES” and the IC50 (ATX [1]; [5]) was over 100 µM.
With `CC(=O)Oc1ccccc1C(=CC=C(c1ccccc1)c1ccccc1)N1CCOCC1` [RF01254, 2-(1-morpholino-4,4-diphenylbuta-1,3-dienyl)phenyl acetate] the Solubility (Solubility (Table S1)) was “YES” and the IC50 (ATX [1]; [5]) was over 100 µM.
In the case of `COc1ccc(-n2c(-c3ccc(Cl)cc3)cc(-c3cccs3)c2-c2ccccc2)cc1` [RG00099, 5-(4-chlorophenyl)-1-(4-methoxyphenyl)-2-phenyl-3-(2-thienyl)-1H-pyrrole], the Solubility (Solubility (Table S1)) is reported as “YES” and the IC50 (ATX [1]; [5]) is reported as over 100 µM.
With `O=C(Nc1c2c(nn1-c1ccc([N+](=O)[O-])cc1)CSC2)c1cccc2ccccc12` [SC-49, N-[2-(4-nitrophenyl)-4,6-dihydrothieno[3,4-c]pyrazol-3-yl]naphthalene-1-carboxamide] the IC50 (mouse ATX [2]) was 9.7 µM, the “activity against PDE” value (phosphodiesterase (PDE)) was “outstanding activity” and the IC50 (ATX [4]) was 0.2 µM. The IC50 (ATX [1]; [11]) was 10.2 µM, the IC50 (ATX [1]; [10]) was 10.2 µM and the IC50 (ATX [1]; [7]) was 9 µM. It also gave an inhibition at 30 µM (ATX [1]) of 65.8%.
For `O=C1Nc2ccccc2/C1=C/c1cc2ccccc2n1S(=O)(=O)c1ccccc1` [SCR01013, (3Z)-3-[[1-(Benzenesulfonyl)indol-2-yl]methylidene]-1H-indol-2-one], the IC50 (mouse ATX [2]; [8]) was 67 µM, the IC50 (ATX [4]; [9]) was 0.6 µM and the Solubility (Solubility (Table S1)) was “YES”. It also gave an inhibition at 30 µM (ATX [1]; Table S2, at 30uM) of 13.2%, an IC50 (ATX [1]; [7]) of 43 µM and an IC50 (ATX [1]; [5]) of 79 µM.
With `NC(=NOC(=O)c1ccc(-c2cccs2)s1)c1cccc(C(F)(F)F)c1` [SEW02612, N'-{[5-(2-thienyl)-2-thienylcarbonyl]oxy}-3-(trifluoromethyl)benzenecarboximidamide] the Solubility (Solubility (Table S1)) was “YES” and the IC50 (ATX [1]; [5]) was over 100 µM.
With `O=S(=O)(Nc1cc(-c2cccs2)nn1-c1ccc(F)cc1)c1ccc(-c2cc(C(F)(F)F)on2)s1` [SP00998] the Solubility (Solubility (Table S1)) was “YES” and the IC50 (ATX [1]; [5]) was over 100 µM.
